# According to patent US20240382482A1, “PLASMA KALLIKREIN INHIBITORS” (TAKEDA PHARMACEUTICAL COMPANY LIMITED, priority 2021, published 2024):
# Target: human activated kallikrein enzyme (Homo sapiens, UniProt P03952)
# Assay: Inhibition of human activated kallikrein enzyme, fluorogenic peptide substrate assay (500 pM enzyme format)
# Format: biochemical
# Conditions: 500 pM activated kallikrein, 300 μM PFR-AMC substrate, 30 min preincubation, 10 min reaction, room temperature; read-out: Primary Dose Response Assay: Average EC50
# Experimental: Compounds were evaluated for inhibition of the human activated kallikrein enzyme in two formats of an assay employing a fluorogenic peptide substrate. In one assay format, the concentrations of reagents were as follows: 20 mM Tris pH 7.5, 1 mM EDTA, 150 mM sodium chloride, 0.1% PEG-400, 0.1% Triton X-100, 500 pM activated kallikrein enzyme, 300 μM Pro-Phe-Arg-7-amido-4-methylcoumarin (PFR-AMC) substrate. Prior to reaction initiation with substrate, enzyme and inhibitors were preincubated for 30 min at room temperature. After initiation with substrate, reactions were incubated for 10 min at room temperature and fluorescence emission at 460 nm from 380 nm excitation measured with a microplate reader. In another assay format, the concentrations of reagents were as follows: 20 mM Tris pH 7.5, 1 mM EDTA, 150 mM sodium chloride, 0.1% PEG-400, 0.1% Triton X-100, 5 pM activated kallikrein enzyme, 300 uM PFR-AMC substrate. Prior to reaction initiation with substrate, enzyme and inhibitors were preincubated for 30 min at room temperature. After initiation with substrate, reactions were incubated for 18 hr at room temperature and fluorescence emission at 460 nm from 380 nm excitation measured with a microplate reader.
# Table 1 provides the results of the assay in the format with 500 pM activated kallikrein assay. For the compounds listed in Table 1, the EC50 values are reported according to the following ranges: A≤5.0 nM; 5.0 nM<B≤50 nM; 50 nM<C≤500 nM; 500 nM<D≤9000 nM; 9000 nM<E.
# human activated kallikrein enzyme, sequence (P03952 391-638 limits assumed): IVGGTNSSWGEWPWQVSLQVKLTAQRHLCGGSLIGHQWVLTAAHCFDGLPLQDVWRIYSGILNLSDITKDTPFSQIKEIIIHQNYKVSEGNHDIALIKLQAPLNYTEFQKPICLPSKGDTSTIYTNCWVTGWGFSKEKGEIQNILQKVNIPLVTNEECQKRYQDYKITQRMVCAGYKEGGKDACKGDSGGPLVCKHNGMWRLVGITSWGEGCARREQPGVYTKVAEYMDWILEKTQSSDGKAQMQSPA
# human activated kallikrein enzyme, sequence (P03952 20-390 partner limits assumed): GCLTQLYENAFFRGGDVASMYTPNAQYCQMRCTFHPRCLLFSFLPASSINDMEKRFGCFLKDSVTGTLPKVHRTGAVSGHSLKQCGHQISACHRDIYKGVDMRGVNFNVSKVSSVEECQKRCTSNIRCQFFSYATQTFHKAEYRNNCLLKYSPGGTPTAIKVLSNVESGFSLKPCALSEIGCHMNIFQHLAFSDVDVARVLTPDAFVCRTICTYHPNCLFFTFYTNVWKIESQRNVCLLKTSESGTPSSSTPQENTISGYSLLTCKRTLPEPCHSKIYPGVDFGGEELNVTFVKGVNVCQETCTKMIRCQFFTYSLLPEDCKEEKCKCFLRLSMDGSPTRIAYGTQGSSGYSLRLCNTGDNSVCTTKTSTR
row,SMILES,EC50 [nM]
1,"O=C(/C=C/c1cccc(Cl)c1)Nc1cc(NCc2cn3cc(C4CC4)ccc3n2)ncn1 [Example 50, (E)-3-(3-chlorophenyl)-N-(6-(((6-cyclopropylimidazo[1,2-a]pyridin-2-yl)methyl)amino)pyrimidin-4-yl)acrylamide]",5 to 50
2,"O=c1c(NCc2cn3cc(C4CC4)ccc3n2)c(NCc2ncn3ccc(Cl)cc23)c1=O [Example 68, 3-(((7-chloroimidazo[1,5-a]pyridin-1-yl)methyl)amino)-4-(((6-cyclopropylimidazo[1,2-a]pyridin-2-yl)methyl)amino)cyclobut-3-ene-1,2-dione]",5 to 50
3,"Cc1cc(C(=N)NO)cc(C)c1CNc1cc(OCc2cn3cc(C4CC4)ccc3n2)nc(C(=O)O)n1 [Example 84, 4-((6-cyclopropylimidazo[1,2-a]pyridin-2-yl)methoxy)-6-((4-(N-hydroxycarbamimidoyl)-2,6-dimethylbenzyl)amino)pyrimidine-2-carboxylic acid]",5 to 50
4,"Cc1cc(C(=N)N)cc(C)c1CNc1cc(OCc2cn3cc(C4CC4)cc(CCC(=O)O)c3n2)ncn1 [Example 97, 3-(2-(((6-((4-carbamimidoyl-2,6-dimethylbenzyl)amino)pyrimidin-4-yl)oxy)methyl)-6-cyclopropylimidazo[1,2-a]pyridin-8-yl)propanoic acid]",≤ 5
5,"CCCCCCOC(=O)NC(=N)c1cc(C)c(CNc2cc(OCc3cn4cc(C5CC5)ccc4n3)nc(C(=O)OCC)n2)c(C)c1 [Example 87, ethyl 4-((6-cyclopropylimidazo[1,2-a]pyridin-2-yl)methoxy)-6-(4-(N-(hexyloxycarbonyl)carbamimidoyl)-2,6-dimethylbenzylamino)pyrimidine-2-carboxylate]",50 to 500
6,"CCOC(=O)c1nc(NCc2c(C)cc(C(=N)N)cc2C)cc(OCc2cn3cc(C4CC4)ccc3n2)n1 [Example 82, ethyl 4-((4-carbamimidoyl-2,6-dimethylbenzyl)amino)-6-((6-cyclopropylimidazo[1,2-a]pyridin-2-yl)methoxy)pyrimidine-2-carboxylate]",≤ 5
7,"O=C(Cc1ncn2ccc(Cl)cc12)Nc1cc(OCc2cn3cc(C4CC4)ccc3n2)ncn1 [Example 33, 2-(7-chloroimidazo[1,5-a]pyridin-1-yl)-N-(6-((6-cyclopropylimidazo[1,2-a]pyridin-2-yl)methoxy)pyrimidin-4-yl)acetamide]",5 to 50
8,"O=C(Cc1nncc2ccc(Cl)cc12)Nc1cc(NCc2cn3cc(C4CC4)ccc3n2)ncn1 [Example 105, 2-(7-chlorophthalazin-1-yl)-N-(6-(((6-cyclopropylimidazo[1,2-a]pyridin-2-yl)methyl)amino)pyrimidin-4-yl)acetamide]",5 to 50
9,"CC(C(=O)Nc1cc(C(F)(F)c2cn3cc(C4CC4)ccc3n2)ncn1)c1ncn2ccc(Cl)cc12 (stereo not shown) [Example 61, 2-(7-chloroimidazo[1,5-a]pyridin-1-yl)-N-(6-((6-cyclopropylimidazo[1,2-a]pyridin-2-yl)difluoromethyl)pyrimidin-4-yl)propanamide]",500 to 9000
10,"CCOC(=O)c1nc(NCc2cn3cc(C4CC4)ccc3n2)cc(NC(=O)Cc2ncn3ccc(Cl)cc23)n1 [Example 20, ethyl 4-(2-(7-chloroimidazo[1,5-a]pyridin-1-yl)acetamido)-6-(((6-cyclopropylimidazo[1,2-a]pyridin-2-yl)methyl)amino)pyrimidine-2-carboxylate]",≤ 5
11,"O=C(Cc1cc2c(Cl)c[nH]c2cc1F)Nc1cc(NCc2cn3cc(C4CC4)ccc3n2)ncn1 [Example 131, 2-(3-chloro-6-fluoro-1H-indol-5-yl)-N-(6-(((6-cyclopropylimidazo[1,2-a]pyridin-2-yl)methyl)amino)pyrimidin-4-yl)acetamide]",500 to 9000
12,"CC(O)c1nc(NCc2cn3cc(C4CC4)ccc3n2)cc(NC(=O)Cc2ncn3ccc(Cl)cc23)n1 (stereo not shown) [Example 103, 2-(7-chloroimidazo[1,5-a]pyridin-1-yl)-N-(6-(((6-cyclopropylimidazo[1,2-a]pyridin-2-yl)methyl)amino)-2-(1-hydroxyethyl)pyrimidin-4-yl)acetamide]",≤ 5
13,"CCOC(=O)NC(=N)c1cc(C)c(CNc2cc(OCc3cn4cc(C5CC5)ccc4n3)nc(C(=O)OCC)n2)c(C)c1 [Example 86, ethyl 4-((6-cyclopropylimidazo[1,2-a]pyridin-2-yl)methoxy)-6-(4-(N-(ethoxycarbonyl)carbamimidoyl)-2,6-dimethylbenzylamino)pyrimidine-2-carboxylate]",50 to 500
14,"O=C(Cc1ncn2ccc(Cl)cc12)Nc1cncnc1NCc1cn2cc(C3CC3)ccc2n1 [Example 42, 2-(7-chloroimidazo[1,5-a]pyridin-1-yl)-N-(4-(((6-cyclopropylimidazo[1,2-a]pyridin-2-yl)methyl)amino)pyrimidin-5-yl)acetamide]",50 to 500
15,"Cc1cc(C(=N)N)cc(C)c1CNc1cc(NCc2cn3cc(C4CC4)ccc3n2)cnn1 [Example 98, 4-(((5-(((6-cyclopropylimidazo[1,2-a]pyridin-2-yl)methyl)amino)pyridazin-3-yl)amino)methyl)-3,5-dimethylbenzimidamide]",≤ 5
16,"Nc1nccc2c1CCC2Nc1cc(NCc2cn3cc(C4CC4)ccc3n2)ncn1 (stereo not shown) [Example 56, N^5-(6-(((6-cyclopropylimidazo[1,2-a]pyridin-2-yl)methyl)amino)pyrimidin-4-yl)-6,7-dihydro-5H-cyclopenta[c]pyridine-1,5-diamine]",5 to 50
17,"COc1ccnc(CC(=O)Nc2cc(NCc3cn4cc(C5CC5)cc(N5CCCC5=O)c4n3)ccn2)c1F [Example 24, N-(4-(((6-cyclopropyl-8-(2-oxopyrrolidin-1-yl)imidazo[1,2-a]pyridin-2-yl)methyl)amino)pyridin-2-yl)-2-(3-fluoro-4-methoxypyridin-2-yl)acetamide]",5 to 50
18,"O=C(Cn1cnc2ccc(Cl)cc21)Nc1cc(NCc2cn3cc(C4CC4)ccc3n2)ccn1 [Example 28, 2-(6-chloro-1H-benzo[d]imidazol-1-yl)-N-(4-(((6-cyclopropylimidazo[1,2-a]pyridin-2-yl)methyl)amino)pyridin-2-yl)acetamide]",500 to 9000
19,CN(Cc1cn2cc(C3CC3)cc(N3CCCC3=O)c2n1)c1cc(NC(=O)Cc2ncn3ccc(Cl)cc23)ncn1 [Example 18],≤ 5
20,"O=C(Cc1ncn2ccc(Cl)cc12)Nc1cncnc1NCc1cn2c(F)c(C3CC3)ccc2n1 [Example 43, 2-(7-chloroimidazo[1,5-a]pyridin-1-yl)-N-(4-(((6-cyclopropyl-5-fluoroimidazo[1,2-a]pyridin-2-yl)methyl)amino)pyrimidin-5-yl)acetamide]",5 to 50
21,"O=C(Cc1ncnc2ccc(Cl)cc12)Nc1cc(NCc2cn3cc(C4CC4)ccc3n2)ncn1 [Example 104, 2-(6-chloroquinazolin-4-yl)-N-(6-(((6-cyclopropylimidazo[1,2-a]pyridin-2-yl)methyl)amino)pyrimidin-4-yl)acetamide]",> 9000
22,"Cc1cc(C(=N)NO)cc(C)c1CNc1cc(OCc2cn3cc(C4CC4)ccc3n2)ncn1 [Example 71, 4-(((6-((6-cyclopropylimidazo[1,2-a]pyridin-2-yl)methoxy)pyrimidin-4-yl)amino)methyl)-N-hydroxy-3,5-dimethylbenzimidamide]",5 to 50
